# From a melting point compilation (Tetko et al.; mined from patent text by program, amines drawn as free bases though some values may be those of a salt)
row,Compound,melting point [°C]
1,O=C(c1ccc(F)cc1C(F)(F)F)N1Cc2cccn2Cc2ccccc21,154 to 155
2,CC(C)(C)OC(=O)n1cc(C(=O)c2ccn3c2CSC3c2cccnc2)c2ccccc21 (configuration not stated),150 to 152
3,CNCc1cc(C(=O)c2cccs2)cc(C(C)(C)C)c1O,128 to 129
4,OCC1CCCN1c1cc(N2CCOCC2)nc(-n2c(C(F)F)nc3c(O)cccc32)n1 (configuration not stated),195 to 198
5,CN1CCC23CC(=O)C=CC2C1Cc1cccc(Oc2nnnn2-c2ccccc2)c13 (configuration not stated),172 to 174
6,Nc1cc(C(=O)N(Cc2ccccc2)Cc2ccccc2)ccc1OCc1ccccc1,81
7,CC(=O)Oc1cc(C(C)C)c(OC(C)=O)c(C(C)C)c1,73.5 to 75
8,N#CN1Cc2ccccc2-c2ccccc2C1,121 to 124
9,CCN(C#N)C(=O)C(C)Oc1ccc(Oc2cnc3cc(F)ccc3n2)cc1 (configuration not stated),108 to 111
10,COc1cc(C(O)c2c(O)c(=O)ccn2CCO)ccc1O (configuration not stated),179 to 190
11,CCOCc1nc2c(N)nc(C)c(C)c2n1CCCCS(=O)(=O)N(C)C,158 to 160
12,CC1CC(=O)NN=C1c1ccc(NC(=O)c2ccco2)cc1 (configuration not stated),213 to 216
13,CN1C(=O)[C@H](NC(=O)/C=C/c2c(Cl)cccc2Cl)N=C(c2ccccc2)c2ccccc21,121 to 124
14,COc1cc2c(cc1OC)C(C(CO)CO)N(C(=O)c1ccccc1)CC2 (configuration not stated),161 to 163
15,CC(=O)Nc1ccc(Sc2nc(Nc3cc(C)n[nH]3)cc(-c3ccccc3C)n2)cc1,212 to 214
16,CC(=O)NNc1ccc(Cl)c(CN2OCC(C)(C)C2=O)c1,178 to 180
17,Nc1ccc(C=C2c3ccccc3CCc3ccccc32)cc1,> 250
18,COc1cc(OCc2ccccn2)ccc1/C=C/c1cc(/C=C/c2ccc3[nH]nnc3c2)n[nH]1,113 to 120
19,CCn1nc2c(N)nc3ccccc3c2c1CC(C)(C)N,234 to 235
20,COc1cc(C(C)C)c(NC(=O)CN2CCN(CCSc3nc4cccc(C(C)=O)c4o3)CC2)c(C(C)C)c1,185 to 186
21,CC(C)CC1CCCCCc2c1oc(=O)c(C(c1ccccc1)C1CC1)c2O (configuration not stated),86 to 92
22,O=C(CCl)Nc1cc2c(Nc3cc(Cl)c(Cl)cc3F)ncnc2cc1OCCOCCF,167 to 169
23,O=S(=O)(Nc1ncnc(Cl)c1-c1ccc(C(F)(F)F)cc1)c1ccc(Cl)cc1,262 to 264
24,CC(=O)Cc1nc2ccccc2c(=O)o1,120 to 122
25,CCOC(=O)c1cn(Cc2ccccn2)nc1S(=O)(=O)NC(=O)Nc1nc(OC)cc(OC)n1,95 to 96
26,COc1ccc2c(c1)CCC1C2CCC2(C)C(OC(C)(C)C)CCC12 (configuration not stated),91 to 92.5

row,Compound,melting point [°C]
1,COC(=O)c1cc(C(=O)O)cc(-n2cccc2)c1,178 to 179
2,CCOC(=O)C(=CNc1ccc(Br)cn1)[N+](=O)[O-],141 to 142
3,[N-]=[N+]=Nc1cc(Cl)nc(-c2ccco2)n1,117 to 119
4,Cc1cc(C)c2cccc(OCc3c(C)ccc(N(C)C(=O)CN)c3C)c2n1,145 to 148
5,CCOC(=O)Cc1cccc2c(=O)cc(C3=CCCCC3)oc12,126 to 127
6,Cc1oc(-c2ccc(F)cc2)cc1CC(=O)O,52 to 53
7,C=CCc1cc(C(C)=O)c(O)cc1OCCCCCC(N)=O,122 to 124
8,CC(C)(C)C(=O)Oc1cc2c(c3ccccc13)Nc1ccccc1S2,142
9,O=C1c2ccccc2-c2c1c1ccccc1c(=O)n2CCCCNS(=O)(=O)c1ccc(Br)cc1,176 to 177
10,CSc1nc(=O)cc(N)n1-c1ccc(Cl)cc1,180 to 182
11,COc1ccc(C2(C)Cc3cc(O)c(Cl)c(Cl)c3C2=O)cc1 (configuration not stated),149 to 156
12,CCOC(=O)c1c(Cl)nc(CC)n1Cc1ccc2oc(-c3ccccc3NC(=O)OC(C)(C)C)c(Br)c2c1,73 to 74
13,COc1ccc(C2=NO[C@]3(CCOC3)C2)cc1OC1CCCC1,110
14,CCC(C)c1cc(Cc2cc(C(C)CC)c(N)c(C)c2Cl)c(Cl)c(C)c1N (configuration not stated),94 to 102
15,CC1Cc2ccc(Cl)cc2C(c2ccc([N+](=O)[O-])cc2)=NN1 (configuration not stated),132 to 135
16,CCCCc1ccc(CNc2cc(C(=O)Nc3ccccc3)ccc2OC)cc1,171 to 173
17,CC1CC(=O)NN=C1c1ccc(N2CCN(C#N)CC2)c([N+](=O)[O-])c1 (configuration not stated),247 to 248
18,CSc1nnc(C2CCCCC2)c(=O)n1C,84 to 88
19,CSc1snc(OCC#CI)c1C#N,145 to 146
20,CS(=O)(=O)N(CCc1ccc(Cl)cc1)Cc1ccncc1,96 to 99
21,Cc1cc(C)c(/C=C2\C(=O)N(COC(=O)CCC(=O)O)c3ccccc32)[nH]1,160 to 163
22,CN(C)C(=O)CCc1cc(-c2ccncc2)sc1-c1ccncc1,166 to 167
23,CCC(O)(c1ccc(F)cc1)c1ccc(OCc2ccccc2)cc1 (configuration not stated),56 to 57
24,O=C(NC1CCNC1)C12CC3CC(CC(C3)C1)C2 (configuration not stated),186 to 188
25,C=CCc1cc2c(c(CC=C)c1O)CCC(=O)N2CCCNC(N)=O,203 to 204
26,O=C(Nc1ccc(C2=CCN(C(=O)OCc3ccccc3)CC2)cc1)OCc1ccccc1,146 to 148

row,Compound,melting point [°C]
1,O=C1Nc2ccccc2S(=O)c2ccccc21 (configuration not stated),308 to 310
2,CC(=O)NC[C@H]1CN(c2ccc(C(=O)c3cnc4c(Br)cc(C)cn34)cc2)C(=O)O1,221 to 223
3,Cc1c(C(=O)c2cccc(C(F)(F)F)c2)oc2c(Br)cccc12,97 to 98
4,COC(=O)c1ccc(C2OC23Cc2ccccc2C3=O)cc1 (configuration not stated),160 to 163
5,COc1ccc(C(=O)Nc2ccc3ccc(Oc4ccc(F)cc4)nc3n2)cc1,100
6,Cc1ccc(C(C)n2[nH]c(C)cc2=O)cc1 (configuration not stated),144 to 146
7,CC(C)(C)OC(=O)N1CCN2C[C@H](COc3ccc(F)cc3)CC[C@H]2C1,90 to 92
8,CN(CCO)c1ccc(C=Cc2ccc(S(C)(=O)=O)cc2)cc1,201 to 204
9,N#Cc1cccc2[nH]c(C(=O)O)cc(=O)c12,278 to 279
10,O=C(O)c1ccc2c(c1)C(=O)N(c1ccccc1C(=O)O)C2=O,262 to 264
11,CCOC(=O)NNC(=O)Cc1noc(C)n1,122 to 124
12,Cc1ccc(C(=C/C=C/C(=O)NCCCCc2cccnc2)c2ccc(C)cc2)cc1,144 to 146
13,C=CCc1c(O)cc(Cl)c2c(-c3ccccc3F)noc12,211 to 212
14,CCCN(CCC)C(=O)CNc1nc(-c2ccccc2)nc2c1CCCC2,87 to 88
15,CCOC(=O)c1ccc2c(c1)sc1cc(N(C)C)ccc12,160 to 162
16,CCN(CCCc1c[nH]c2ccc(F)cc12)C1COc2c(F)ccc(C(=O)NC)c2C1 (configuration not stated),118
17,CCOC(=O)Cc1cc(Br)c(SC(=O)N(C)C)c(Br)c1,105 to 107
18,N#CCc1cccc(-c2ccc3c(c2)C2(CCCCC2)C(=O)N3)c1,190 to 193
19,O=C1NCCc2c(-c3ccc4ccccc4c3)[nH]c3cccc1c23,261 to 262
20,O=C(c1ccc(O)cc1)c1c(-c2ccccc2)ccc2ccccc12,204 to 205
21,CN1Cc2c(C(=O)OC(C)(C)C)ncn2-c2ccc(F)cc2C1=O,228 to 229
22,C=CCCc1ccc(C=NN=Cc2ccc(C)cc2)cc1,82
23,NC(=O)N1C(=O)C(C(=O)c2cc(Cl)cs2)c2ncc(Cl)cc21 (configuration not stated),> 250
24,CN1CCN(C2=Nc3ccccc3N3CCc4cc(Cl)cc2c43)CC1,182 to 183
25,Nc1ccc(SCc2cnc3ccccn23)cc1,119 to 121
26,COc1cc(C(=O)O)ccc1OCCCCl,154 to 156

row,Compound,melting point [°C]
1,CONS(=O)(=O)c1cccc([N+](=O)[O-])c1,111 to 113
2,CN1CCC(c2cc(-c3ccncc3)c(-c3cccc(C(F)(F)F)c3)nn2)CC1,188 to 189
3,O=C(Nc1ccc(-n2cnc(Cl)c2Cl)cc1)Nc1ccc(C(F)(F)F)cc1,221 to 224
4,CC(C)(C)c1cc(N(C(=O)C=CC(=O)O)c2ccccc2)cc(C(C)(C)C)c1O,154 to 157
5,O=C1NC[C@H]2CCC[C@H]2O1 (relative stereo),56 to 58
6,CC1(C)C=C(c2ccccn2)c2cc(C#N)ccc2O1,106 to 108
7,CCCn1c(=O)c2[nH]c(-c3nn(CC(=O)Nc4ccc(Cl)cc4)c(C)c3Br)nc2n(CCC)c1=O,298 to 299
8,OCCCc1cn(-c2ccc(F)cc2)c2ccc(Cl)cc12,67 to 69
9,COc1ccc(COCc2nc(C(C)C)c(Sc3cc(Cl)cc(Cl)c3)n2CC(F)(F)F)cc1,134 to 136
10,CCOc1cc(NC(=O)C2=C(C(=O)N(CC)CC)CCCC2)ccc1Cl,98 to 100
11,O=C1N(Cc2ccccn2)c2ccccc2C12COc1cc3c(cc12)OCC3 (configuration not stated),198 to 200
12,Nc1ccc2c(=O)n(-c3ccccc3)c(=O)n(-c3ccccc3)c2n1,162 to 163
13,Cn1cc(-c2cnc3c(c2)N(Cc2cc(Cl)ccc2C(F)(F)F)CCN3)cn1,156
14,O=[N+]([O-])c1ccc(N=Nc2cc(OCCO)c(N(CCCO)CCCO)cc2OCCO)cc1,132 to 134
15,CC(C)(C)CC(C)(C)c1cc(-n2nc3ccc(C(=O)O)cc3n2)c(O)c(C(C)(C)c2ccccc2)c1,219 to 221
16,CCOC(=O)CCC12CCC(=O)N1C(=O)CC2,104 to 105
17,COC(=O)C(O)(c1ccc(OC)cc1)c1ccc(OC)cc1,110
18,Cc1nc(-c2ccc(C(F)(F)F)cc2)sc1Sc1ccc(Cc2nn[nH]n2)cc1,177
19,CCOC(=O)c1cn([C@@H](C)CO)c2c(F)c(N3CCN(C)CC3)c(F)cc2c1=O,195 to 197
20,COc1ccc(CC2NC(=O)NC2=O)cc1 (configuration not stated),174
21,Clc1ccc2nncc(Cl)c2c1,111 to 113
22,O=S(c1ccccc1)c1ccc2c(c1)C(O)C(Br)CCO2 (configuration not stated),147 to 149
23,OC1(c2cccs2)CCN(CCCc2nnc3n2CCCCC3)CC1,162 to 163
24,O=C(Nc1ccc(Cl)cc1)Nn1cnc2c(O)cccc2c1=O,266 to 268
